This is an account of results in US20070043110A1, “Nontoxic potentiation sensitization of ovarian cancer therapy by supplementary treatment with vitamins” (Summa Health System, priority 2001, published 2007).

The term LD50 denotes the dose at which mortality reaches 50%. For orientation: ILS means the gain in survival time of treated over control animals, in per cent.

The subject of data set [1] is murine transplantable liver tumor (TLT). Conditions: cited from earlier work.
Data set [2] deals with prostate cancer. As to the kind of experiment: Randomized trial in prostate cancer patients, serum HCY and PSA. It is filed as in vivo, human. More on the design: Variation of Serum HCY (mean ± SD): unit not given here. Conditions: for difference in serum levels of homocysteine and PSA versus control group: individual vitamin treatment groups (Group 2 or Group 3) vs Group 4. As to the method:
Recently a prospective, randomized trial was performed with 20 prostate cancer patients who had pathologically proven prostate cancer in advanced stages (M1) with osseous metastasis and resistance to hormone therapy. The patients were randomly distributed in four groups of five patients each. […] In Group 2, ascorbic acid was omitted. In Group 3, menadione was omitted. A placebo was administered to patients of Group 4. Only two treatment courses were tested in this study so that the immediate effects of the vitamins in a clinical model could be determined and compared to the immediate induction of autoschizis elicited by the vitamin combination in preclinical models. Homocysteine (a good marker of the number of tumor cells with sensitivity for early detection of tumor cell death induced by treatments) and prostate specific antigen (PSA) assays were performed in the four groups to obtain information about the tumor cell death induced by the treatments. Serum homocysteine (HCY) and PSA were measured the first day of each week (day 1, 8, 15, 22, 29, 36, and […] of the study). […] This fall in serum HCY was highly significant (p<<0.01) in all weekly measures after the first series (day 8-42). […] The reasons for the initial increase in serum PSA levels are unknown.

For data set [3], the system named is RT4. The data set is described as follows: Antitumor activity by MTT assay, RT4. Conditions: Homo sapiens. The source says: (§1) The FIC index was used to evaluate the synergism of the vitamins. A FIC<1.0 indicates the combination is synergistic, while a FIC>1.0 indicates the combination is antagonistic. A FIC=1.0 indicates the combination is indifferent. […] During this time, two requests for humanitarian intervention were made.
In general terms: Formazan colour is commonly taken as a measure of viable cells.

Data set [4] relates to DU145. As to the kind of experiment: Antitumor activity by MTT assay, DU145. Conditions: Homo sapiens.
Description: as §1

For data set [5], the system named is Caki-1. As to the kind of experiment: Antitumor activity by MTT assay, Caki-1. The conditions noted are these: Homo sapiens.
Description: as §1

For data set [6] the following is noted: 10 to 100 g twice per week; cited from earlier work.
Data set [7] deals with SCaBER. As to the kind of experiment: Antitumor activity by MTT assay, SCaBER. Conditions: Homo sapiens.
Description: as §1

The subject of data set [8] is MDA-MB-231. The data set is described as follows: Antitumor activity by MTT assay, MDA-MB-231. The conditions noted are these: Homo sapiens.
Description: as §1

The subject of data set [9] is MDAH 2774 cells. The data set is described as follows: Antitumor activity by MTT assay, MDAH 2774.
Description: as §1

Data set [10] has as its system Tera-2. The data set is described as follows: Antitumor activity by MTT assay, Tera-2. The conditions noted are these: Homo sapiens.
Description: as §1

Data set [11] concerns CWR22. As to the kind of experiment: Antitumor activity by MTT assay, CWR22. Conditions: Homo sapiens.
Description: as §1

Data set [12] deals with SKOV3. As to the kind of experiment: Antitumor activity by MTT assay, SKOV3. The conditions noted are these: Homo sapiens.
Description: as §1

Data set [13] concerns CAOV-3 cell line. The data set is described as follows: Cytotoxicity (CD50), CAOV-3. The format is cell-based. Conditions: Homo sapiens.
Description: as §1

The test system of data set [14] is advanced cancer. Conditions: 10 grams given orally; cited from earlier work.
For data set [15], the system named is ES-2 cell line. The data set is described as follows: Cytotoxicity (CD50), ES-2. The format is cell-based. The conditions noted are these: Homo sapiens.
Description: as §1

Data set [16] relates to PC3. As to the kind of experiment: Antitumor activity by MTT assay, PC3. The conditions noted are these: Homo sapiens.
Description: as §1

The subject of data set [17] is J82. The data set is described as follows: Antitumor activity by MTT assay, J82. The conditions noted are these: Homo sapiens.
Description: as §1

Data set [18] relates to terminal cancer. Conditions: cited from earlier work.
Data set [19] concerns TCCSUP. As to the kind of experiment: Antitumor activity by MTT assay, TCCSUP. The conditions noted are these: Homo sapiens, TCC-SUP.
Description: as §1

For data set [20], the system named is T24. The data set is described as follows: Antitumor activity by MTT assay, T24. The conditions noted are these: Homo sapiens.
Description: as §1

The conditions of data set [21]: 400-500 mg/day over 3-5 consecutive days; cited from earlier work.
The conditions of data set [22]: mouse, in vivo.
For data set [23] the following is noted: cited from earlier work.
For data set [24] the following is noted: mice; cited from earlier work.
Data set [25] has as its system tumor growth. The conditions noted are these: cited from earlier work.
Data set [26] has as its system gastrointestinal cancer. Conditions: VK3 with mitomycin C; 43 patients; cited from earlier work.
Data set [27] has as its system advanced lung cancer. The conditions noted are these: cited from earlier work.
For data set [28] the following is noted: bisulfite form; cited from earlier work.
Data set [29] relates to hepatoma. Conditions: weekly i.p. 10 mg/2 mL for 4 weeks, cited from earlier work.
Where [30] appears, read: assay day 8, oral 7 day courses from day 1 and day 22, VC 5 g/m^2/day, VK3 50 mg/m^2/day, pretreatment = 0.
Setting [31] is: read-out: Vitamins Alone, Vit C 50% Cytotoxic Dose.
Where [32] appears, read: read-out: Vitamins Alone, Vit K3 50% Cytotoxic Dose.

Structures can show the parent of a compound that is named as a salt. Where two headings read alike, the source gives them in different places.

As to `CC[C@]1(O)C[C@H]2CN(CCc3c([nH]c4ccccc34)[C@@](C(=O)OC)(c3cc4c(cc3OC)N(C=O)[C@H]3[C@@](O)(C(=O)OC)[C@H](OC(C)=O)[C@]5(CC)C=CCN6CC[C@]43[C@@H]65)C2)C1` [Oncovin, vincristine sulfate], the MST in data set [1] (second study, each agent alone, Oncovin 0.3 mg/kg) is recorded as 19.0 days.

Turning to `O=C1O[C@H]([C@@H](O)CO)C([O-])=C1O.[Na+]` [Vitamin C, Sodium Ascorbate], the increased lifespan in data set [1] (VC alone 1 g/Kg body weight) was 14.7%. Besides, the “Variation of Serum HCY (mean ± SD)” value is reported as 0.59 ± 0.508 in data set [2] (setting [30]); 0.74 ± 0.349 in [2] (assay day 15); 1.24 ± 0.448 in data set [2] (assay day 22); 1.45 ± 0.498 in data set [2] (assay day 29); 1.32 ± 0.448 in [2] (assay day 36); 1.34 ± 0.486 in data set [2] (assay day 42). Also, the “difference in serum levels of homocysteine and PSA versus control group” value in [2] was “non-significant difference”. Besides, the IC50 is 2.43 ± 0.028 mM in data set [3] (RT-4, read-out: Vitamins Alone, Vit C 50% Cytotoxic Dose); 2.46 ± 0.028 mM in data set [4] (DU-145, read-out: Vitamins Alone, Vit C 50% Cytotoxic Dose); 376 ± 1 µM in data set [5] (CAKI-1, read-out: Vitamins Alone, Vit C 50% Cytotoxic Dose); 327 ± 6 µM in data set [7] (setting [31]); 466 ± 3.23 µM in data set [8] (MDA-MB-231, read-out: Vitamins Alone, Vit C 50% Cytotoxic Dose); 1.53 mM in data set [9] (Homo sapiens, MDAH 2774, read-out: Vitamins Alone, Vit C 50% Cytotoxic Dose, MDAH, Ovarian). Further, the IC50 in data set [9] (read-out: Vitamins Alone, Vit C 50% Cytotoxic Dose, MDAH, Ovarian) came to 1.52 ± 0.029 mM; in data set [10] (setting [31]) it was 1312 ± 10 µM; in data set [11] (CWR22, read-out: Vitamins Alone, Vit C 50% Cytotoxic Dose), 254 ± 1.02 µM; in [12] (SK-OV-3, read-out: Vitamins Alone, Vit C 50% Cytotoxic Dose), 755 ± 24.1 µM; in [13] (Caov-3, read-out: CD50, vitamin C alone) it was 1360 µM; in data set [15] (read-out: CD50, VC alone) it was 197 µM. The IC50 stood at 2.36 ± 0.039 mM in [16] (PC-3, read-out: Vitamins Alone, Vit C 50% Cytotoxic Dose); 376 ± 1 µM in data set [17] (J82, read-out: Vitamins Alone, Vit C 50% Cytotoxic Dose); 297 ± 7 µM in data set [19] (setting [31]); 1490 ± 141 µM in data set [20] (T-24, read-out: Vitamins Alone, Vit C 50% Cytotoxic Dose). Moreover, in data set [6], the “remissions with high doses of i.v. VC” value was “a small number of complete remissions”. In addition, the “effectiveness of oral Vitamin C” value in [14] is reported as “no benefits”. Also, the mean survival time entry is on record as “more than 210 days” in data set [18] (100 terminal cancer patients, 10 g/day i.v. for 10 days then 10 g/day orally, controls 50 days) and 148 days in data set [18] (six ovarian cancer patients, controls 71 days).

Regarding `CC1=CC(=O)c2ccccc2C1=O` [Vitamin K3, 2-Methyl-1,4-Naphthoquinone], the “toxicity in phase I clinical trials” value in data set [21] is listed as “without any appreciable toxicity”. Further, the toxicity to livers entry in [22] is “no toxicity”. In addition, in data set [1] (VK3 alone 0.01 g/Kg body weight), the increased lifespan was 1.07%. The “maximum tolerated dose of VK3” value in data set [23] (48-hour intravenous infusion, followed by mitomycin C 15 mg/m2 every four weeks) was 2.5 g/m^2. Moreover, the tolerability result in [23] (i.v., in conjunction with mitomycin C, Phase I and Phase II trials) was “well tolerated”. For the same compound, the “hemolysis at maximum tolerated dose” value in data set [23] (with mitomycin C every four weeks) was “no hemolysis”. Moreover, the “Variation of Serum HCY (mean ± SD)” value in data set [2] (setting [30]) stood at 0.468 ± 0.362; in [2] (assay day 15) it was 0.59 ± 0.227; in data set [2] (assay day 22), 0.68 ± 0.210; in data set [2] (assay day 29), 0.76 ± 0.341; in [2] (assay day 36) it was 1.12 ± 0.400; in data set [2] (assay day 42), 1.3 ± 0.432. The “difference in serum levels of homocysteine and PSA versus control group” value in data set [2] is on record as “non-significant difference”. In data set [24], the LD50 was 500 mg/kg. Moreover, the IC50 worked out at 0.0128 ± 3e-05 mM in [3] (RT-4, read-out: Vitamins Alone, Vit K3 50% Cytotoxic Dose); 0.0129 ± 0.00081 mM in data set [4] (DU-145, read-out: Vitamins Alone, Vit K3 50% Cytotoxic Dose); 19.3 ± 0.33 µM in data set [5] (CAKI-1, read-out: Vitamins Alone, Vit K3 50% Cytotoxic Dose); 9.7 ± 0.15 µM in data set [7] (setting [32]); 7.1 ± 0.21 µM in [8] (MDA-MB-231, read-out: Vitamins Alone, Vit K3 50% Cytotoxic Dose); 0.0418 mM in data set [9] (Homo sapiens, MDAH 2774, read-out: Vitamins Alone, Vit K3 50% Cytotoxic Dose, MDAH, Ovarian). The IC50 was 21.8 ± 0.73 µM in data set [10] (setting [32]); 4.1 ± 0.33 µM in data set [11] (CWR22, read-out: Vitamins Alone, Vit K3 50% Cytotoxic Dose); 22 ± 1.93 µM in [12] (SK-OV-3, read-out: Vitamins Alone, Vit K3 50% Cytotoxic Dose); 22 µM in [13] (Caov-3, read-out: CD50, VK3 alone); 25 µM in data set [15] (read-out: CD50, VK alone); 0.0114 ± 0.00013 mM in data set [16] (PC-3, read-out: Vitamins Alone, Vit K3 50% Cytotoxic Dose). In addition, the IC50 came out at 8.2 ± 0.15 µM in data set [17] (J82, read-out: Vitamins Alone, Vit K3 50% Cytotoxic Dose); 6.3 ± 0.06 µM in data set [19] (setting [32]); 13.1 ± 0.01 µM in data set [20] (T-24, read-out: Vitamins Alone, Vit K3 50% Cytotoxic Dose). The “inhibition of tumor growth” value in [25] (VK3 225 mg/kg/day with methotrexate) is recorded as 84%; in [25] (menadione 250 mg/kg/day with methotrexate 0.75 mg/kg/day), 99%. Further, the “circulating levels of VK3 that induce synergism with methotrexate” value in [25] (rat, in vivo) is no less than 1 µM. Further, in data set [26], the response to therapy entry is on record as “no objective response”. In addition, in data set [27] (VK3 in combination with mitomycin C, 23 patients), the median survival was 5.5 months. In addition, the “patients exhibiting hematologic toxicity” value in [27] (VK3 with mitomycin C) is on record as 30%. For the same compound, the “patients exhibiting some tumor regression” value in [27] (VK3 with mitomycin C) is 26%. Also, the solubility entry in data set [28] is on record as “water soluble”. Also, the long term survivors in data set [29] is 5 out of 16. Further, in [29] (control rats 17 days), the survival was 60 days.

Turning to `O=P1(N(CCCl)CCCl)NCCCO1` (stereo not shown) [cyclophosphamide], the ILS in data set [1] (single dose of cyclophosphamide 80 mg/kg body weight) was 23%. For the same compound, the MST in data set [1] (single dose of cyclophosphamide 80 mg/kg body weight, untreated 16.8 days) is on record as 20.6 days.
